Data reported in patent US8871934B2, “Fluorene compound and pharmaceutical use thereof” (Japan Tobacco Inc., priority 2008, dated 2014).
Read-outs that look alike come from different tables or passages of the source.

Target: human PDHK2 (hPDHK2) (Homo sapiens (Human), UniProt Q15119)
Assay: Inhibitory action of PDHK activity in vitro (kinase reaction, residual PDH activity measured)
Assay type: biochemical
Method: In the case of human PDHK2 (hPDHK2, Genbank Accession No. NM_002611), modified hPDHK2 cDNA wherein FLAG-Tag sequence is added to the N terminal by a polymerase linkage reaction was prepared based on hPDHK2 cDNA clone (pReceiver-M01/PDK2-GeneCopoeia), and cloned into a vector (pET17b-Novagen). The recombinant construct was transformed into Escherichia coli (DH5α-TOYOBO). The recombinant clones were identified, plasmid DNA was isolated and subjected to the DNA sequence analysis. One clone which had the expected nucleic acid sequence was selected for expression work.
During the assay, the hPDHK2 enzyme concentration was set to the minimal concentration at which PDH is inhibited the most.
0.05 U/mL PDH (porcine heart PDH complex, Sigma P7032) and 1.6 μg/mL hPDHK2 were mixed in a buffer (50 mmol/L 3-morpholinopropanesulfonic acid (pH 7.0), 20 mmol/L dipotassium hydrogen phosphate, 60 mmol/L potassium chloride, 2 mmol/L magnesium chloride, 0.4 mmol/L EDTA, and 0.2% Pluronic F-68, 2 mmol/L dithiothreitol), the mixture was incubated at 4° C. overnight to give PDH/hPDHK2 complex. The test compound was diluted with dimethyl sulfoxide (DMSO). PDH/hPDHK2 complex (20 μL), test compound (1.5 μL) and 3.53 μmol/L ATP (diluted with buffer, 8.5 μL) were added to a half area 96 well UV-transparent microplate (Corning 3679), and PDHK reaction was performed at room temperature for 45 min. Instead of the test compound, DMSO (1.5 μL) was added to a control well. DMSO (1.5 μL) was added instead of the test compound to a blank well for the measurement of the maximum rate of PDH reaction, and hPDHK2 was not added. Than, 10 μL of substrates (5 mmol/L sodium pyruvate, 5 mmol/L Coenzyme A, 12 mmol/L NAD, and 5 mmol/L thiamine pyrophosphate, diluted with buffer) was added. The mixture was incubated at room temperature for 90 min, and the residual PDH activity was measured. The absorbance at 340 nm before and after PDH reaction was measured on a microplate reader to detect NADH produced by the PDH reaction. The PDHK inhibitory rate (%) of the test compound was calculated from the formula [{(PDH activity of test compound—PDH activity of control)/PDH activity of blank—PDH activity of control)}×100]. The IC50 value was calculated from the concentrations of the test compound at two points enclosing 50% inhibition of the PDHK activity.

[1] = PDHK inhibitory activity IC50 (μmol/L)
[2] = PDHK inhibitory activity, class symbol of IC50
[3] = read-out: PDHK inhibitory activity IC50

Row | SMILES | IC50 [1] [µM] | IC50 [2] [µM] | IC50 [3] [µM]
1 | Cc1cc(-c2cnn(C3(CO)CCCC3)c2)c2c(c1)[C@@](O)(C(F)(F)F)c1ccccc1-2 (stereo in doubt) [compound 546] | 0.015 | < 0.1 | 
2 | OCC1(n2cc(-c3cc(F)cc4c3-c3ccccc3[C@]4(O)C(F)(F)F)cn2)CCCC1 (stereo in doubt) [compound 548] | 0.016 | < 0.1 | 
3 | O=C(O)C1(n2cc(-c3cc(F)cc4c3-c3ccccc3[C@]4(O)C(F)(F)F)cn2)CCCC1 (stereo in doubt) [compound 549] | 0.027 | < 0.1 | 
4 | Cc1cc(-c2cnn(CC(=O)O)c2)c2c(c1)[C@@](O)(C(F)(F)F)c1ccccc1-2 (stereo in doubt) [compound 550] | 0.069 | < 0.1 | 
5 | O=C(O)Cn1cc(-c2cc(F)cc3c2-c2ccccc2[C@]3(O)C(F)(F)F)cn1 (stereo in doubt) [compound 551] | 0.109 | 0.1 to 1 | 
6 | OC1(C(F)(F)F)c2ccccc2-c2ncccc21 (centres unmarked) [compound 1] |  | > 1 | 2.21
7 | Cc1cccc2c1-c1ccccc1C2(O)C(F)(F)F (centres unmarked) [compound 2] |  | > 1 | 2.29
8 | Cc1ccc2c(c1)C(O)(C(F)(F)F)c1ccccc1-2 (centres unmarked) [compound 3] |  | > 1 | 1.57
9 | OC1(C(F)(F)F)c2ccccc2-c2ccc(F)cc21 (centres unmarked) [compound 4] |  | > 1 | 2.29
10 | OC1(C(F)(F)F)c2ccccc2-c2ccc(Cl)cc21 (centres unmarked) [compound 5] |  | > 1 | 1.17
11 | OC1(C(F)(F)F)c2ccccc2-c2c(Cl)cccc21 (centres unmarked) [compound 6] |  | > 1 | 2.29
12 | OC1(C(F)(F)F)c2ccccc2-c2ccc(Br)cc21 (centres unmarked) [compound 7] |  | > 1 | 1.44
13 | OC1(C(F)(F)F)c2ccccc2-c2cccc(Cl)c21 (centres unmarked) [compound 8] |  | > 1 | 45.6
14 | OC1(C(F)(F)F)c2ccccc2-c2cc(Cl)ccc21 (centres unmarked) [compound 9] |  | > 1 | 20
15 | Cc1ccc2c(c1)-c1ccccc1C2(O)C(F)(F)F (centres unmarked) [compound 10] |  | > 1 | 30.8
16 | OC1(C(F)(F)F)c2ccccc2-c2c(F)cccc21 (centres unmarked) [compound 11] |  | > 1 | 6.79
17 | OC1(C(F)(F)F)c2ccccc2-c2cc(F)ccc21 (centres unmarked) [compound 12] |  | > 1 | 5.5
18 | OC1(C(F)(F)F)c2ccccc2-c2cccc(F)c21 (centres unmarked) [compound 13] |  | > 1 | 15.9
19 | OC1(C(F)(F)F)c2cc(Cl)ccc2-c2ccc(Cl)cc21 [compound 14] |  | > 1 | 56.6
20 | Cc1cccc2c1-c1ncccc1C2(O)C(F)(F)F (centres unmarked) [compound 15] |  | > 1 | 16.3
21 | Cc1ccc2c(c1)C(O)(C(F)(F)F)c1cccnc1-2 (centres unmarked) [compound 16] |  | > 1 | 19.3
22 | Cc1ccc2c(c1)C(O)(C(F)(F)F)c1cccc(C)c1-2 (centres unmarked) [compound 17] |  | > 1 | 13.9

Row | SMILES | IC50 [1] [µM] | IC50 [2] [µM] | IC50 [3] [µM]
23 | Cc1cc(C)c2c(c1)C(O)(C(F)(F)F)c1ccccc1-2 (centres unmarked) [compound 18] |  | 0.1 to 1 | 0.457
24 | CC(=O)Nc1cccc2c1-c1ccccc1C2(O)C(F)(F)F (centres unmarked) [compound 19] |  | > 1 | > 100
25 | Nc1cccc2c1-c1ccccc1C2(O)C(F)(F)F (centres unmarked) [compound 20] |  | > 1 | 3.5
26 | OC1(C(F)(F)F)c2ccccc2-c2c(Cl)cc(Cl)cc21 (centres unmarked) [compound 21] |  | 0.1 to 1 | 0.302
27 | CC(=O)Nc1ccc2c(c1)C(O)(C(F)(F)F)c1ccccc1-2 (centres unmarked) [compound 22] |  | > 1 | 16.7
28 | COC(=O)c1ccc2c(c1)C(O)(C(F)(F)F)c1ccccc1-2 (centres unmarked) [compound 23] |  | 0.1 to 1 | 0.571
29 | O=C(O)c1ccc2c(c1)C(O)(C(F)(F)F)c1ccccc1-2 (centres unmarked) [compound 24] |  | > 1 | > 100
30 | CCc1cccc2c1-c1ccccc1C2(O)C(F)(F)F (centres unmarked) [compound 25] |  | > 1 | 30.9
31 | Nc1ccc2c(c1)-c1ccccc1C2(O)C(F)(F)F (centres unmarked) [compound 26] |  | > 1 | 17.6
32 | COC(=O)c1cccc2c1-c1ccccc1C2(O)C(F)(F)F (centres unmarked) [compound 27] |  | 0.1 to 1 | 0.848
33 | CC(=O)Nc1ccc2c(c1)-c1ccccc1C2(O)C(F)(F)F (centres unmarked) [compound 28] |  | > 1 | 2.81
34 | NC(=O)c1ccc2c(c1)C(O)(C(F)(F)F)c1ccccc1-2 (centres unmarked) [compound 29] |  | > 1 | 5.74
35 | CNC(=O)c1ccc2c(c1)C(O)(C(F)(F)F)c1ccccc1-2 (centres unmarked) [compound 30] |  | > 1 | 8.61
36 | CN(C)C(=O)c1ccc2c(c1)C(O)(C(F)(F)F)c1ccccc1-2 (centres unmarked) [compound 31] |  | > 1 | 1.35
37 | O=C(O)c1cccc2c1-c1ccccc1C2(O)C(F)(F)F (centres unmarked) [compound 32] |  | > 1 | > 100
38 | NC(=O)c1cccc2c1-c1ccccc1C2(O)C(F)(F)F (centres unmarked) [compound 33] |  | > 1 | 1.81
39 | CNC(=O)c1cccc2c1-c1ccccc1C2(O)C(F)(F)F (centres unmarked) [compound 34] |  | > 1 | 33.2
40 | CN(C)C(=O)c1cccc2c1-c1ccccc1C2(O)C(F)(F)F (centres unmarked) [compound 35] |  | > 1 | > 100
41 | OC1(C(F)(F)F)c2ccccc2-c2ncc(Cl)cc21 (centres unmarked) [compound 36] |  | 0.1 to 1 | 0.626
42 | COc1ccc2c(c1)C(O)(C(F)(F)F)c1ccccc1-2 (centres unmarked) [compound 37] |  | > 1 | 3.96
43 | Oc1ccc2c(c1)C(O)(C(F)(F)F)c1ccccc1-2 (centres unmarked) [compound 38] |  | > 1 | 12
44 | CCc1ccc2c(c1)C(O)(C(F)(F)F)c1ccccc1-2 (centres unmarked) [compound 39] |  | > 1 | 4.52

Row | SMILES | IC50 [1] [µM] | IC50 [2] [µM] | IC50 [3] [µM]
45 | COC(=O)c1ccc2c(c1)-c1ccccc1C2(O)C(F)(F)F (centres unmarked) [compound 40] |  | > 1 | 2.47
46 | O=C(O)c1ccc2c(c1)-c1ccccc1C2(O)C(F)(F)F (centres unmarked) [compound 41] |  | > 1 | 68.6
47 | NC(=O)c1ccc2c(c1)-c1ccccc1C2(O)C(F)(F)F (centres unmarked) [compound 42] |  | > 1 | 5.56
48 | CNC(=O)c1ccc2c(c1)-c1ccccc1C2(O)C(F)(F)F (centres unmarked) [compound 43] |  | > 1 | 3.92
49 | CN(C)C(=O)c1ccc2c(c1)-c1ccccc1C2(O)C(F)(F)F (centres unmarked) [compound 44] |  | > 1 | > 100
50 | COC(=O)c1cc(C)c2c(c1)C(O)(C(F)(F)F)c1ccccc1-2 (centres unmarked) [compound 45] |  | 0.1 to 1 | 0.247
51 | COc1cccc2c1-c1ccccc1C2(O)C(F)(F)F (centres unmarked) [compound 46] |  | > 1 | 6.49
52 | COc1ccc2c(c1)-c1ccccc1C2(O)C(F)(F)F (centres unmarked) [compound 47] |  | > 1 | 4.91
53 | CCOC(=O)c1cccc2c1-c1ccccc1C2(O)C(F)(F)F (centres unmarked) [compound 48] |  | 0.1 to 1 | 0.639
54 | N#Cc1cccc2c1-c1ccccc1C2(O)C(F)(F)F (centres unmarked) [compound 49] |  | > 1 | 1.79
55 | COC(=O)c1cc(C(=O)OC)c2c(c1)C(O)(C(F)(F)F)c1ccccc1-2 (centres unmarked) [compound 50] |  | 0.1 to 1 | 0.1
56 | CCN(C)C(=O)c1ccc2c(c1)C(O)(C(F)(F)F)c1ccccc1-2 (centres unmarked) [compound 51] |  | > 1 | 2.59
57 | O=C(c1ccc2c(c1)C(O)(C(F)(F)F)c1ccccc1-2)N1CCCCC1 (centres unmarked) [compound 52] |  | > 1 | 4.01
58 | O=C(c1ccc2c(c1)C(O)(C(F)(F)F)c1ccccc1-2)N1CCCC1 (centres unmarked) [compound 53] |  | 0.1 to 1 | 0.567
59 | CCN(CC)C(=O)c1ccc2c(c1)C(O)(C(F)(F)F)c1ccccc1-2 (centres unmarked) [compound 54] |  | > 1 | 21.9
60 | Nc1ccc2c(c1)C(O)(C(F)(F)F)c1ccccc1-2 (centres unmarked) [compound 55] |  | > 1 | 19.8
61 | CN(C(=O)c1ccc2c(c1)C(O)(C(F)(F)F)c1ccccc1-2)c1ccccc1 (centres unmarked) [compound 56] |  | > 1 | > 100
62 | CN(C(=O)c1ccc2c(c1)C(O)(C(F)(F)F)c1ccccc1-2)C1CCC1 (centres unmarked) [compound 57] |  | > 1 | 5.62
63 | O=C(c1ccc2c(c1)C(O)(C(F)(F)F)c1ccccc1-2)N1CCC1 (centres unmarked) [compound 58] |  | 0.1 to 1 | 0.195
64 | CCCOC(=O)c1cccc2c1-c1ccccc1C2(O)C(F)(F)F (centres unmarked) [compound 59] |  | 0.1 to 1 | 0.772
